Laboratory results published in ChEMBL document CHEMBL1201862, “PubChem BioAssay data set” (2004).
Activity calls are given as the source filed them.

Columns and labels:
[1] = biological target: T1, Methionyl-tRNA synthetase, putative (Trypanosoma brucei brucei, UniProt Q38C91); type: functional, Trypanosoma brucei brucei strain 927/4 GUTat10.1;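 further: Read-out by fluorescence polarization, run as a confirmatory high-throughput counterscreen; potency of MetRS inhibitors measured by reduced AMP formation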
T1 sequence (Q38C91 whole entry): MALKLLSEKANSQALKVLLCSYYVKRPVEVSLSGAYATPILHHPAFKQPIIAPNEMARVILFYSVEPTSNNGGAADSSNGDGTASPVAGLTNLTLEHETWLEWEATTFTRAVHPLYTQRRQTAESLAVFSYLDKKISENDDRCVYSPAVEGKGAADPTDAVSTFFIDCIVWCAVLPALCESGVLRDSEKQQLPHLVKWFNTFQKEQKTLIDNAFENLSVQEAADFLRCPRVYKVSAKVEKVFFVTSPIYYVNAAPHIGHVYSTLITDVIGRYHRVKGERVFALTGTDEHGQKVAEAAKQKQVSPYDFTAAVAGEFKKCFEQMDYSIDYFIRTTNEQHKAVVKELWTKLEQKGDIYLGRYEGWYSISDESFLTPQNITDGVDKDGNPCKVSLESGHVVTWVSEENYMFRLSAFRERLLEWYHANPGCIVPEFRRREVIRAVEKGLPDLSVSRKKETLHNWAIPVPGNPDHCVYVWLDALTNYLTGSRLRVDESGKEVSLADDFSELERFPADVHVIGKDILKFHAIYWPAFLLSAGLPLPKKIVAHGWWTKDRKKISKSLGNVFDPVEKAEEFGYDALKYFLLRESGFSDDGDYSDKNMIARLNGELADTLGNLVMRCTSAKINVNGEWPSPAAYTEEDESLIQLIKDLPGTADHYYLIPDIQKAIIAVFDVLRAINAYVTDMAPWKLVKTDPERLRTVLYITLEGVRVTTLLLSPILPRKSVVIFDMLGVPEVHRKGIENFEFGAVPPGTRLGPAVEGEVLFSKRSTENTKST

[2] = biological target: DNA repair and recombination protein RAD54-like (Homo sapiens, UniProt Q92698); assay: inhibitors of human RAD54 branch migration, confirmation, biochemical, fluorescence, cherry-picked samples, dose series (AID 651657); type: functional
[3] = biological target: T2, DNA repair protein RAD52 homolog (Homo sapiens, UniProt P43351); type: functional, biochemical
T2 sequence (P43351 whole entry): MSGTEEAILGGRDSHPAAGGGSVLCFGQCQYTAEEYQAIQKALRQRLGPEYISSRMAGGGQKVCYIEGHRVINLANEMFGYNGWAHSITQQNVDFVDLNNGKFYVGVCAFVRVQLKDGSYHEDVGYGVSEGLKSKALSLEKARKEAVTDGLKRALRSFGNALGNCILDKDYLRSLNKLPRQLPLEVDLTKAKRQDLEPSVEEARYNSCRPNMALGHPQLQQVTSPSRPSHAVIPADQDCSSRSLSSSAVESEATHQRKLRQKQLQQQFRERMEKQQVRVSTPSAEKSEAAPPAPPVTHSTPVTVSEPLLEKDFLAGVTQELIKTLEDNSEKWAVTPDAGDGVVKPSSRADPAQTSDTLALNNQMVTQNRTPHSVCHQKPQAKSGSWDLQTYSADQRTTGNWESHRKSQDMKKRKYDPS

[4] = biological target: Adenosylmethionine-8-amino-7-oxononanoate aminotransferase (Mycobacterium tuberculosis, UniProt P9WQ81); assay: Mycobacterium tuberculosis BioA enzyme inhibitor Measured in Biochemical System Using Plate Reader - 2163-02_Inhibitor_Dose_CherryPick_Activity.; type: functional, Mycobacterium tuberculosis UT205
Sequence of Adenosylmethionine-8-amino-7-oxononanoate aminotransferase (P9WQ81 whole entry): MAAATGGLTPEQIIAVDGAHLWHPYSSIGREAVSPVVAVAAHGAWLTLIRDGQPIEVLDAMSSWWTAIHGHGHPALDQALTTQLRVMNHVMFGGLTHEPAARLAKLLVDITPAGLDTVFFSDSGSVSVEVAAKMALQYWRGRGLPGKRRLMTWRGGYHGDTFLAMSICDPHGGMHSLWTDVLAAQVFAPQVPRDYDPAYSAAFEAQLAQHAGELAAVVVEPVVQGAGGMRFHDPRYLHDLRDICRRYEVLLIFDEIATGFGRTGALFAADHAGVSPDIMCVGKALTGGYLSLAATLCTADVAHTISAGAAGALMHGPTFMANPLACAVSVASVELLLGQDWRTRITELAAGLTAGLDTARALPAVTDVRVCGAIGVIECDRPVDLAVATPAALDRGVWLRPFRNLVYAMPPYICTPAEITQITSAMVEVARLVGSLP

Sequence of DNA repair and recombination protein RAD54-like (Q92698 whole entry): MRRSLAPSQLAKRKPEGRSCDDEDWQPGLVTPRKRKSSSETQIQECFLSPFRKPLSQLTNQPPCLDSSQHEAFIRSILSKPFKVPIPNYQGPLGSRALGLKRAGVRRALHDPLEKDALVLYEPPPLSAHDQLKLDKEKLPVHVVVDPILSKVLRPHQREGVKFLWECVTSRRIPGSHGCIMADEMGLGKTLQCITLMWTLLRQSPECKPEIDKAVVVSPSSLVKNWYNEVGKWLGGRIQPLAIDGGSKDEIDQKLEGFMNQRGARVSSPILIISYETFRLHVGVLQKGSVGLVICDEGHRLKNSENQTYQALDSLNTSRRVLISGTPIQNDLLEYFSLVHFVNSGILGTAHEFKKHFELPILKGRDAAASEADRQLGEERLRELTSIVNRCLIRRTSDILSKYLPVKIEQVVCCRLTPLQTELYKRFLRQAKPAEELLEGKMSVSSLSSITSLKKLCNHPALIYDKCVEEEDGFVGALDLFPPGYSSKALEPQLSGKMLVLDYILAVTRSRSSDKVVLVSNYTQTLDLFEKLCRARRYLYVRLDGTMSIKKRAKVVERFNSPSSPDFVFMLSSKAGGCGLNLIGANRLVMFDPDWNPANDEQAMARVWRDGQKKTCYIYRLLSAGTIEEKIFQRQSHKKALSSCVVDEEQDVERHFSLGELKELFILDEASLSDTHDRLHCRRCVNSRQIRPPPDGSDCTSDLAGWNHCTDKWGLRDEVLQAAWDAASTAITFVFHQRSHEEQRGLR

**Q.** How did the IC50 [1] turn out when `Cc1ccc2nc(-c3ccc(SCC(=O)Nc4ccc5c(c4)OCCO5)nc3)[nH]c2c1` was run?
**A.** 21.5 µM (inactive)

**Q.** Which AC50 [2] does the source give for `Cc1cc(C)c2c(c1)c1nnc(SCCN3CCCCC3)nc1n2C` here?
**A.** 11 µM (active)

**Q.** And the AC50 [3]?
**A.** 6.11 µM (active)

**Q.** `CN1c2ccc(-c3cccc(F)c3)cc2[C@H]2[C@H](CCN2C(=O)C2CC2)[C@H]1CO` was tested. Which AC50 [4] did it give?
**A.** 0.134 µM (active)

**Q.** `CO/C(O)=C1\C(C)=Nc2sc(C(N)=O)c(N)c2C1c1ccncc1` (stereo not given) was tested. Which AC50 [4] did it give?
**A.** 4.4 µM (active)
